These results are taken from patent publication US5081119A, “Use of 5-alkylpyridazine derivatives as drugs active on the cholinergic system” (priority 1989, dated 1992).

The structures appear in SMILES notation.

The target of assay [1] is T1, M1-type muscarinic cholinergic receptor (Rattus norvegicus, UniProt P08482).
T1 construct: on a homogenate of rat hippocampus; from tissue; host or cells: rat hippocampus homogenate
T1 sequence (P08482 1-460): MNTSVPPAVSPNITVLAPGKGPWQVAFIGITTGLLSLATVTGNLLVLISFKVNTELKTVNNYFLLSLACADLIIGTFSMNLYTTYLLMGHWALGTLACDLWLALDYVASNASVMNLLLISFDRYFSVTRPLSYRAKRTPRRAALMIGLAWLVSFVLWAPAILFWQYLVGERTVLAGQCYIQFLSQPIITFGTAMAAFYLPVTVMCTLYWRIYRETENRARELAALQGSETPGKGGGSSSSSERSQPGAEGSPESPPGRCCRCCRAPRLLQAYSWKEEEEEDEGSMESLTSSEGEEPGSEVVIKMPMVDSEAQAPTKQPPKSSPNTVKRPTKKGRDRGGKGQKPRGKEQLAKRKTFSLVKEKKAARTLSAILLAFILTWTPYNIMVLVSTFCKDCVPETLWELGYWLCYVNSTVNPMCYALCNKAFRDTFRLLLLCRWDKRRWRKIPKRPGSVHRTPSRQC
In words: Affinity for M1-type muscarinic cholinergic receptor: displacement of [3H]-pirenzepine on rat hippocampus homogenate. The class given is binding. The following applies: for IC50: displacement of [3H]-PZ (1 nM), rat hippocampus homogenate, 2 h at 4° C., pH 7.40; for r = M2/M1 (ratio of the M2 and M1 IC50 values, selectivity towards the M1 receptor): ratio of IC50 3H-NMS (guinea-pig ileum) to IC50 3H-PZ (rat hippocampus). From the text:
(§1) In vitro, we studied the interaction of the products (II) with tritiated pirenzepine and tritiated N-methylscopolamine bound with a high affinity to membranes of rat hippocampus and membranes of smooth muscle of guinea-pig ileum, respectively.
A) Test for affinity for the M1 -type muscarinic cholinergic receptor
The interaction of molecules with the M1 -type muscarinic receptors was studied by in vitro measurement, on a homogenate of rat hippocampus, of the displacement of tritiated pirenzepine ([^3 H]-PZ) from its specific binding sites. Aliquots (100 μl) of a 5% (w/v) homogenate of rat hippocampus in an Na2 HPO4 buffer (50 mM, pH 7.40) are incubated for 2 h at 4° C. in the presence of [^3 H]-PZ (76 Ci/mmol; final concentration: 1 nM) and increasing concentrations of test products. The final volume is 2 ml. The reaction is stopped by centrifugation for 10 min at 50,000×g. After decantation and washing of the residues, the bound radioactivity is counted by liquid scintillation. The non-specific binding is determined in the presence of 10 μmol/l of atropine sulfate. The 50% inhibitory concentration (IC50) is determined graphically (Ref.: Watson J. D., Roeskoe W. R. and Yamamura H. I., Life Sci., 31, 2019-2029, 1982).
(§2) Table 3 indicates the affinities of the products of the invention for the M1 and M2 receptors. The results are expressed as 50 percent inhibitory concentrations (IC50), i.e. the concentration (in μM) which causes a 50% inhibition of the binding of the tritiated ligand to the membrane receptors. The IC50 for displacement of ^3 H-pirenzepine represents the affinity for the M1 receptor; the IC50 for displacement of ^3 H-NMS represents the affinity for the M2 receptor.
(§3) The Table also indicates, in the 3rd column, the ratio r of the M2 and M1 IC50 values, which expresses the selectivity of the products towards the M1 receptor.
In general terms: Displacement assays read how much labelled ligand stays bound in the presence of the test substance.

Assay [2] has as its target T2, M2-type muscarinic cholinergic receptor (Cavia porcellus, UniProt H0VRN8).
T2 construct: on a homogenate of smooth muscle of guinea-pig ileum; from tissue; host or cells: guinea-pig ileum smooth muscle homogenate
T2 sequence (H0VRN8 1-466): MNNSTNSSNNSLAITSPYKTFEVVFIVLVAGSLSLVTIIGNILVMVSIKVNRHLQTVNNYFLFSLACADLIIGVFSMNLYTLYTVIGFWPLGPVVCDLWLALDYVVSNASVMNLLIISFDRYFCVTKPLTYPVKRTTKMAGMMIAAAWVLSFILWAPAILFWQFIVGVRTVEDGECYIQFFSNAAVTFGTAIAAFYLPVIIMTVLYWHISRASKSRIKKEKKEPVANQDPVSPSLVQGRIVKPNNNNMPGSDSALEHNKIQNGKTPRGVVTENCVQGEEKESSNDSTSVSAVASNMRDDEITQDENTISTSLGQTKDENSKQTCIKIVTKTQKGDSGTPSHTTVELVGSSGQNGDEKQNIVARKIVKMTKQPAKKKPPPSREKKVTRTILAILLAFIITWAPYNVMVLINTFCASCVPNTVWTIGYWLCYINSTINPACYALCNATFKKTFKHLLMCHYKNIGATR
In words: Affinity for M2-type muscarinic cholinergic receptor: displacement of [3H]-N-methylscopolamine on guinea-pig ileum smooth muscle homogenate. The class given is binding. The following applies: displacement of [3H]-NMS (0.3 nM), 20 min at 30° C., pH 7.5.
Excerpt: as §1
B) Test for affinity for the M2 -type muscarinic cholinergic receptor.
The interaction with the M2 -type muscarinic receptors was studied by in vitro measurement, on a homogenate of smooth muscle of guinea-pig ileum, of the displacement of tritiated N-methylscopolamine ([^3 H]-NMS) from its specific binding sites. Aliquots (50 μl) of a 0.625% (w/v) homogenate of smooth guinea-pig muscle in HEPES buffer (20 mM) containing NaCl (100 mM) and MgCl2 (10 mM) (final pH: 7.5) are incubated for 20 min at 30° C. in the presence of [^3 H]-NMS (85 Ci/mmol; final concentration: 0.3 nM) and increasing concentrations of test products. The final volume is 1 ml. The reaction is stopped by centrifugation for 5 min at 15,000×g. The non-specific binding is determined in the presence of 10 μmol-l of atropine sulfate (Ref.: Hammer R., Berrie C. P., Birdsall N. I. M., Burgen A. S. V. and Hulme E. C., Nature, 283, 90-92, 1980; Hulme E. C., Birdsall N. I. M., Burgen A. S. V. and Mettha P., Mol. Pharmacol., 14, 737-750, 1978).
as §2, §3

Assay [3] relates to rotational behavior induced by intrastriatal pirenzepine (M1 central muscarinic cholinergic receptors). In words: Antagonism of rotational behavior induced by intrastriatal injection of pirenzepine in mice. The class given is in vivo, mice (female, Swiss, CD 1 printed as DC 1, Charles River). The following applies: 3 mg/kg p.o., 4 hours before pirenzepine 1 μg into right striatum; 10 animals per dose; Student t test, *p < 0.05, **p < 0.01. How it is done:
The compounds of formula (II) were also subjected to an in vivo study. Pirenzepine (PZ) is a specific antagonist of ligands for the M1 central muscarinic cholinergic receptors. The intrastriatal injection of PZ into mice induces rotational behavior. The antagonism of this behavior by the test products was studied. The products according to the invention are administered orally after solubilization in distilled water or suspension in a 5% solution of gum arabic. The control animals receive an injection of the pure solvent under the same conditions. The animals used are female mice (Swiss, DC 1, Charles River, France) with a body weight of between 25 and 30 grams. Pirenzepine is dissolved in a phosphate buffer; the pH of the solution is 6. The test products or their solvents are administered orally in a volume of 0.4 ml per 20 g of body weight, 4 hours before a direct injection of pirenzepine at a dose of 1 μg of product in 1 μl of solvent into the right striatum of the mouse, according to the method described by P. Worms et al. in Psychopharmacology 1987, 93, 489-493. The number of contralateral rotations (rotations in the opposite direction to the side injected) was counted for three 2-minute periods after the injection of pirenzepine: minutes 2 to 4, 8 to 10 and 13 to 15. Each treatment involves 10 animals per dose. For each treatment, the total number of rotations and the percentage antagonism compared with the control group are calculated. The results obtained with the products of formula (II) administered orally at a dose of 3 mg/kg of body weight are collated in Table 4.

For assay [4], the system named is cholinergic receptors. The assay is described as follows: Ligand properties for the cholinergic receptors (subsequent studies). The class given is binding.
The conditions of assay [5]: French patents 2 141 697, 2 510 997, 2 510 998; cited from earlier work.

Turning to `CCN(CC)CCNc1cc(C)c(-c2ccccc2)nn1` [SR 96150 A], in assay [1], the IC50 (commonly the concentration at which inhibition is half-maximal) came out at 60 nM; the “r = M2/M1 (ratio of the M2 and M1 IC50 values, selectivity towards the M1 receptor)” value amounted to 47. In assay [2], this molecule came in with an IC50 of 2800 nM. Further, the “% inhibition of rotations” value in assay [3] is listed as -49%.
The corresponding values for `CCc1cc(NCCN2CCOCC2)nnc1-c1ccccc1` [SR 96169 A] are 3700 nM, 8, 30000 nM and -46%.
The like results for `CCCc1cc(NCCN(CC)CC)nnc1-c1ccccc1` [SR 96187 A] were, in that order, 400 nM, 9, 3500 nM and -37%.
For the molecule `Cc1cc(NCCN2CCOCC2)nnc1-c1ccccc1` [(I), 3-(2-morpholinoethylamino)-5-methyl-6-phenylpyridazine], the “properties as a ligand for the cholinergic receptors (in words)” value in assay [4] was “possesses valuable properties as a ligand for the cholinergic receptors”. Further, the antidepressant properties result in assay [5] is given as “antidepressant properties of moderate intensity”.
`CCCc1cc(NCCN2CCOCC2)nnc1-c1ccccc1` [SR 96186 A]: in assay [1], the IC50 was 600 nM; the “r = M2/M1 (ratio of the M2 and M1 IC50 values, selectivity towards the M1 receptor)” value is listed as 30. Also, the half-maximal inhibitory concentration (IC50) in assay [2] is 18000 nM. Besides, the “% inhibition of rotations” value in assay [3] is -41%.
The corresponding values for `Cc1cc(NCCN2CCOCC2)nnc1-c1ccccc1.O=C(O)C(=O)O.O=C(O)C(=O)O` [CM 30316, 3-(2-Morpholinoethylamino)-5-methyl-6-phenylpyridazine dioxalate] are 550 nM, 182, 100000 nM and -20%.
As for `CCc1cc(NCCN(CC)CC)nnc1-c1ccccc1` [SR 96180 A], the IC50 was determined as 70 nM in assay [1] and 1000 nM in assay [2]. Further, the “r = M2/M1 (ratio of the M2 and M1 IC50 values, selectivity towards the M1 receptor)” value in assay [1] came to 14. Further, in assay [3], the “% inhibition of rotations” value is on record as -38%.
